According to PubChem BioAssay (NCI):
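Growth conditions: 96-well plates. Treatment: test compound, 48 hours, 5 concentrations. Analysis: linear interpolation between bracketing concentrations; unreached endpoints set to highest concentration. The concentration for full growth arrest is given as TGI.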

Key:
Experiment in all cases: inhibition of tumour cell growth, NCI panel, 48 h
A549 NSCLC = system: A549 NSCLC
CAKI-1 renal = system: CAKI-1 renal
786-0 renal = system: 786-0 renal
MCF7 breast = system: MCF7 breast
NCI-H226 lung = system: NCI-H226 lung
SNB-75 CNS = system: SNB-75 CNS
OVCAR-5 ovarian = system: OVCAR-5 ovarian
NCI-H460 lung = system: NCI-H460 lung
SW-620 colon = system: SW-620 colon
A498 renal = system: A498 renal
BT-549 breast = system: BT-549 breast
SN12C renal = system: SN12C renal
DU-145 prostate = system: DU-145 prostate
UACC-257 melanoma = system: UACC-257 melanoma
MDA-MB-231 breast = system: MDA-MB-231 breast
SF-268 CNS = system: SF-268 CNS
ACHN renal = system: ACHN renal
U251 CNS = system: U251 CNS
KM12 colon = system: KM12 colon
SK-MEL-5 melanoma = system: SK-MEL-5 melanoma
SK-MEL-28 melanoma = system: SK-MEL-28 melanoma
IGROV1 ovarian = system: IGROV1 ovarian
HOP-92 NSCLC = system: HOP-92 NSCLC
NCI-H23 lung = system: NCI-H23 lung
HT29 colon = system: HT29 colon
RXF 393 renal = system: RXF 393 renal
UACC-62 melanoma = system: UACC-62 melanoma
HCC-2998 colon = system: HCC-2998 colon
OVCAR-3 ovarian = system: OVCAR-3 ovarian
SF-539 CNS = system: SF-539 CNS
SNB-19 CNS = system: SNB-19 CNS
SF-295 CNS = system: SF-295 CNS
COLO 205 colon = system: COLO 205 colon
OVCAR-4 ovarian = system: OVCAR-4 ovarian
T-47D breast = system: T-47D breast
SK-OV-3 ovarian = system: SK-OV-3 ovarian
NCI/ADR-RES ovarian = system: NCI/ADR-RES ovarian
MDA-N = system: MDA-N
MOLT-4 leukemia = system: MOLT-4 leukemia
UO-31 renal = system: UO-31 renal
OVCAR-8 ovarian = system: OVCAR-8 ovarian
SK-MEL-2 melanoma = system: SK-MEL-2 melanoma
TK-10 renal = system: TK-10 renal
EKVX NSCLC = system: EKVX NSCLC
HL-60(TB) leukemia = system: HL-60(TB) leukemia
HOP-62 NSCLC = system: HOP-62 NSCLC
LOX IMVI melanoma = system: LOX IMVI melanoma
M14 melanoma = system: M14 melanoma
HCT-15 colon = system: HCT-15 colon
HCT-116 colon = system: HCT-116 colon
MDA-MB-435 = system: MDA-MB-435
SR leukemia = system: SR leukemia
HS 578T breast = system: HS 578T breast
K-562 leukemia = system: K-562 leukemia
NCI-H522 lung = system: NCI-H522 lung
PC-3 prostate = system: PC-3 prostate
MALME-3M melanoma = system: MALME-3M melanoma
CCRF-CEM leukemia = system: CCRF-CEM leukemia
RPMI-8226 leukemia = system: RPMI-8226 leukemia

C/C(O)=C(/C=N\C(=S)Nc1ccc(Cl)c(Cl)c1)C(=O)Nc1ccccc1C
TGI (A549 NSCLC): > 100 µM
TGI (CAKI-1 renal): 95.7 µM
TGI (786-0 renal): > 100 µM
TGI (MCF7 breast): > 100 µM
TGI (NCI-H226 lung): 88.7 µM
TGI (SNB-75 CNS): 66.3 µM
TGI (OVCAR-5 ovarian): > 100 µM
TGI (NCI-H460 lung): > 100 µM
TGI (SW-620 colon): > 100 µM
TGI (A498 renal): 79.6 µM
TGI (BT-549 breast): > 100 µM
TGI (SN12C renal): > 100 µM
TGI (DU-145 prostate): 92 µM
TGI (UACC-257 melanoma): > 100 µM
TGI (MDA-MB-231 breast): > 100 µM
TGI (SF-268 CNS): > 100 µM
TGI (ACHN renal): > 100 µM
TGI (U251 CNS): > 100 µM
TGI (KM12 colon): > 100 µM
TGI (SK-MEL-5 melanoma): 44 µM
TGI (SK-MEL-28 melanoma): > 100 µM
TGI (IGROV1 ovarian): > 100 µM
TGI (HOP-92 NSCLC): 58.1 µM
TGI (NCI-H23 lung): 76.8 µM
TGI (HT29 colon): 87.1 µM
TGI (RXF 393 renal): > 100 µM
TGI (UACC-62 melanoma): 49.8 µM
TGI (HCC-2998 colon): > 100 µM
TGI (OVCAR-3 ovarian): > 100 µM
TGI (SF-539 CNS): > 100 µM
TGI (SNB-19 CNS): 84.2 µM
TGI (SF-295 CNS): > 100 µM
TGI (COLO 205 colon): > 100 µM
TGI (OVCAR-4 ovarian): 76.5 µM
TGI (T-47D breast): 45.7 µM
TGI (SK-OV-3 ovarian): > 100 µM
TGI (NCI/ADR-RES ovarian): 61.1 µM
TGI (MDA-N): > 100 µM
TGI (MOLT-4 leukemia): 54.9 µM
TGI (UO-31 renal): > 100 µM
TGI (OVCAR-8 ovarian): 66.3 µM
TGI (SK-MEL-2 melanoma): > 100 µM
TGI (TK-10 renal): > 100 µM
TGI (EKVX NSCLC): > 100 µM
TGI (HL-60(TB) leukemia): 60.1 µM
TGI (HOP-62 NSCLC): > 100 µM
TGI (LOX IMVI melanoma): > 100 µM
TGI (M14 melanoma): > 100 µM
TGI (HCT-15 colon): > 100 µM
TGI (HCT-116 colon): > 100 µM
TGI (MDA-MB-435): > 100 µM

Cn1c(N(CCO)CCO)cnc1[N+](=O)[O-]
TGI (A549 NSCLC): > 100 µM
TGI (CAKI-1 renal): > 100 µM
TGI (786-0 renal): > 100 µM
TGI (MCF7 breast): > 100 µM
TGI (NCI-H226 lung): > 100 µM
TGI (SNB-75 CNS): > 100 µM
TGI (OVCAR-5 ovarian): > 100 µM
TGI (NCI-H460 lung): > 100 µM
TGI (SR leukemia): > 100 µM
TGI (SW-620 colon): > 100 µM
TGI (A498 renal): > 100 µM
TGI (BT-549 breast): > 100 µM
TGI (UACC-257 melanoma): > 100 µM
TGI (HS 578T breast): > 100 µM
TGI (MDA-MB-231 breast): > 100 µM
TGI (K-562 leukemia): > 100 µM
TGI (NCI-H522 lung): > 100 µM
TGI (SF-268 CNS): > 100 µM
TGI (ACHN renal): > 100 µM
TGI (U251 CNS): > 100 µM
TGI (KM12 colon): > 100 µM
TGI (SK-MEL-5 melanoma): > 100 µM
TGI (IGROV1 ovarian): > 100 µM
TGI (HOP-92 NSCLC): > 100 µM
TGI (NCI-H23 lung): > 100 µM
TGI (HT29 colon): > 100 µM
TGI (RXF 393 renal): > 100 µM
TGI (UACC-62 melanoma): > 100 µM
TGI (PC-3 prostate): > 100 µM
TGI (OVCAR-3 ovarian): > 100 µM
TGI (SF-539 CNS): > 100 µM
TGI (SNB-19 CNS): > 100 µM
TGI (SF-295 CNS): > 100 µM
TGI (COLO 205 colon): > 100 µM
TGI (OVCAR-4 ovarian): > 100 µM
TGI (T-47D breast): > 100 µM
TGI (SK-OV-3 ovarian): > 100 µM
TGI (NCI/ADR-RES ovarian): > 100 µM
TGI (MALME-3M melanoma): > 100 µM
TGI (MDA-N): > 100 µM
TGI (MOLT-4 leukemia): > 100 µM
TGI (UO-31 renal): > 100 µM
TGI (OVCAR-8 ovarian): > 100 µM
TGI (SK-MEL-2 melanoma): > 100 µM
TGI (TK-10 renal): > 100 µM
TGI (CCRF-CEM leukemia): > 100 µM
TGI (EKVX NSCLC): > 100 µM
TGI (HL-60(TB) leukemia): > 100 µM
TGI (RPMI-8226 leukemia): > 100 µM
TGI (HOP-62 NSCLC): > 100 µM
TGI (LOX IMVI melanoma): > 100 µM
TGI (M14 melanoma): > 100 µM
TGI (HCT-15 colon): > 100 µM
TGI (HCT-116 colon): > 100 µM
TGI (MDA-MB-435): > 100 µM

Cn1c(=O)cc(NNc2ccc(Br)cc2)[nH]c1=O
TGI (A549 NSCLC): 29.8 µM
TGI (786-0 renal): 21.4 µM
TGI (MCF7 breast): 26.8 µM
TGI (NCI-H226 lung): 39.1 µM
TGI (OVCAR-5 ovarian): 26.2 µM
TGI (NCI-H460 lung): 19.3 µM
TGI (SR leukemia): > 100 µM
TGI (SW-620 colon): 15.6 µM
TGI (A498 renal): > 100 µM
TGI (BT-549 breast): 30.6 µM
TGI (SN12C renal): 22.6 µM
TGI (DU-145 prostate): 19.3 µM
TGI (UACC-257 melanoma): 29.1 µM
TGI (HS 578T breast): 9.34 µM
TGI (MDA-MB-231 breast): 27.7 µM
TGI (K-562 leukemia): > 100 µM
TGI (ACHN renal): 29.9 µM
TGI (U251 CNS): 10 µM
TGI (KM12 colon): 10.4 µM
TGI (SK-MEL-5 melanoma): 30.2 µM
TGI (SK-MEL-28 melanoma): 34.7 µM
TGI (IGROV1 ovarian): 23.1 µM
TGI (HOP-92 NSCLC): 27.7 µM
TGI (HT29 colon): 12.2 µM
TGI (HCC-2998 colon): 13.9 µM
TGI (PC-3 prostate): 22.1 µM
TGI (OVCAR-3 ovarian): 14.7 µM
TGI (SF-539 CNS): 8.14 µM
TGI (SNB-19 CNS): 26.5 µM
TGI (SF-295 CNS): 26.2 µM
TGI (COLO 205 colon): 13.7 µM
TGI (OVCAR-4 ovarian): 30.3 µM
TGI (NCI/ADR-RES ovarian): > 100 µM
TGI (MALME-3M melanoma): 31.4 µM
TGI (MDA-N): 28.6 µM
TGI (UO-31 renal): 30 µM
TGI (OVCAR-8 ovarian): 41.4 µM
TGI (TK-10 renal): 34.9 µM
TGI (CCRF-CEM leukemia): > 100 µM
TGI (EKVX NSCLC): 37.5 µM
TGI (HL-60(TB) leukemia): 7.14 µM
TGI (RPMI-8226 leukemia): 46 µM
TGI (HOP-62 NSCLC): 29.5 µM
TGI (LOX IMVI melanoma): 4.13 µM
TGI (M14 melanoma): 33.4 µM
TGI (HCT-15 colon): 19.6 µM
TGI (HCT-116 colon): 29.3 µM
TGI (MDA-MB-435): 25.3 µM

COC(=O)c1ccccc1/C=C1\Cc2cc3c(cc2C1=O)CCC3
TGI (A549 NSCLC): > 100 µM
TGI (CAKI-1 renal): > 100 µM
TGI (786-0 renal): > 100 µM
TGI (MCF7 breast): > 100 µM
TGI (NCI-H226 lung): > 100 µM
TGI (SNB-75 CNS): > 100 µM
TGI (OVCAR-5 ovarian): > 100 µM
TGI (NCI-H460 lung): > 100 µM
TGI (SR leukemia): > 100 µM
TGI (SW-620 colon): > 100 µM
TGI (A498 renal): > 100 µM
TGI (BT-549 breast): > 100 µM
TGI (SN12C renal): > 100 µM
TGI (DU-145 prostate): > 100 µM
TGI (UACC-257 melanoma): > 100 µM
TGI (MDA-MB-231 breast): > 100 µM
TGI (NCI-H522 lung): > 100 µM
TGI (SF-268 CNS): > 100 µM
TGI (ACHN renal): > 100 µM
TGI (U251 CNS): > 100 µM
TGI (KM12 colon): > 100 µM
TGI (SK-MEL-5 melanoma): > 100 µM
TGI (SK-MEL-28 melanoma): > 100 µM
TGI (IGROV1 ovarian): > 100 µM
TGI (NCI-H23 lung): > 100 µM
TGI (HT29 colon): > 100 µM
TGI (UACC-62 melanoma): > 100 µM
TGI (HCC-2998 colon): > 100 µM
TGI (PC-3 prostate): > 100 µM
TGI (OVCAR-3 ovarian): > 100 µM
TGI (SF-539 CNS): > 100 µM
TGI (SNB-19 CNS): > 100 µM
TGI (SF-295 CNS): > 100 µM
TGI (COLO 205 colon): > 100 µM
TGI (OVCAR-4 ovarian): > 100 µM
TGI (T-47D breast): > 100 µM
TGI (SK-OV-3 ovarian): > 100 µM
TGI (NCI/ADR-RES ovarian): > 100 µM
TGI (MALME-3M melanoma): > 100 µM
TGI (MDA-N): 78.8 µM
TGI (MOLT-4 leukemia): > 100 µM
TGI (UO-31 renal): > 100 µM
TGI (OVCAR-8 ovarian): > 100 µM
TGI (SK-MEL-2 melanoma): > 100 µM
TGI (TK-10 renal): > 100 µM
TGI (EKVX NSCLC): > 100 µM
TGI (HL-60(TB) leukemia): > 100 µM
TGI (RPMI-8226 leukemia): > 100 µM
TGI (HOP-62 NSCLC): > 100 µM
TGI (LOX IMVI melanoma): > 100 µM
TGI (M14 melanoma): > 100 µM
TGI (HCT-15 colon): > 100 µM
TGI (HCT-116 colon): > 100 µM
